Key:
Acetylcholinesterase = Acetylcholinesterase (Homo sapiens, UniProt P22303); format: functional
[1] = target: T1, Alpha-2A adrenergic receptor (Homo sapiens, UniProt P08913)
T1 sequence (P08913 whole entry): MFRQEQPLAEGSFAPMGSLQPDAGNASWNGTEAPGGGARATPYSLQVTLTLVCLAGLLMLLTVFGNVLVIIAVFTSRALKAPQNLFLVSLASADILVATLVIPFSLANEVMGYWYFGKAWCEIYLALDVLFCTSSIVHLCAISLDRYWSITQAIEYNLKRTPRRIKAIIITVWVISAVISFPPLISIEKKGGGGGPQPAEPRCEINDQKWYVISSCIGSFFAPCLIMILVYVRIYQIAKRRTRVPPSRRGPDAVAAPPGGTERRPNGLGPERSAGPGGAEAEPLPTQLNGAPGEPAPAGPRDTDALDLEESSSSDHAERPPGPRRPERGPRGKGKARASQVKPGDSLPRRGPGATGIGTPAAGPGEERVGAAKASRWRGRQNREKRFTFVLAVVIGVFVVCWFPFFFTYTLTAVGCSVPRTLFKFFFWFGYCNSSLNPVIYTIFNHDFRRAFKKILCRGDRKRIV

Prothrombin = Prothrombin (Homo sapiens, UniProt P00734); format: functional
Histamine H3 receptor = Histamine H3 receptor (Homo sapiens, UniProt Q9Y5N1)
[2] = target: 5-hydroxytryptamine receptor 2B (Homo sapiens, UniProt P41595); format: functional, cell-based
Progesterone receptor [3] = target: T2, Progesterone receptor (Homo sapiens, UniProt P06401)
T2 sequence (P06401 whole entry): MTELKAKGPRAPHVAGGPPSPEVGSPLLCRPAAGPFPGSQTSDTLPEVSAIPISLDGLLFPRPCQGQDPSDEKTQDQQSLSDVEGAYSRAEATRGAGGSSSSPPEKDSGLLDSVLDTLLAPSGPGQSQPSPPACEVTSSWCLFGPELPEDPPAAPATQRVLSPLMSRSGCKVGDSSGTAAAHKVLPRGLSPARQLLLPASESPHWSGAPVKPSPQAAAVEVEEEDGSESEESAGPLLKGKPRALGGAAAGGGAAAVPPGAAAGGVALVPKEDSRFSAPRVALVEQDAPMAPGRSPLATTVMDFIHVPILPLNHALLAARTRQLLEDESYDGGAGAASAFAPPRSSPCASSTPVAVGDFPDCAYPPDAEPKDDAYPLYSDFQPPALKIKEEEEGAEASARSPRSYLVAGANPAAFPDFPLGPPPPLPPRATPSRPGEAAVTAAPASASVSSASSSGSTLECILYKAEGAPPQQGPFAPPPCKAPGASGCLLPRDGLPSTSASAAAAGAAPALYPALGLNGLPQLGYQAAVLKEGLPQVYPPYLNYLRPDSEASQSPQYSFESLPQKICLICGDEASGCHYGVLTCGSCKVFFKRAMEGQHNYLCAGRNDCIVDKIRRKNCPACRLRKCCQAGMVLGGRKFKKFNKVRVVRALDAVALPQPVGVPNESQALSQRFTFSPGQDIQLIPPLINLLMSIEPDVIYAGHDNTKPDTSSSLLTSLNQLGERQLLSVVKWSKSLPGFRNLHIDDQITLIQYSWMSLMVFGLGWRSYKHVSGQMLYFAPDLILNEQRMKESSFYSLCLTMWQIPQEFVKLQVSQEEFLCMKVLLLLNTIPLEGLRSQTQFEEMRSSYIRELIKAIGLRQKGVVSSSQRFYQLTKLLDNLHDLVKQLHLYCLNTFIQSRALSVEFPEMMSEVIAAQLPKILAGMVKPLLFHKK

[4] = target: Prostaglandin G/H synthase 1 (Homo sapiens, UniProt P23219); format: functional
Thromboxane A2 receptor = target: T3, Thromboxane A2 receptor (Homo sapiens, UniProt P21731); format: functional, cell-based
T3 sequence (P21731 whole entry): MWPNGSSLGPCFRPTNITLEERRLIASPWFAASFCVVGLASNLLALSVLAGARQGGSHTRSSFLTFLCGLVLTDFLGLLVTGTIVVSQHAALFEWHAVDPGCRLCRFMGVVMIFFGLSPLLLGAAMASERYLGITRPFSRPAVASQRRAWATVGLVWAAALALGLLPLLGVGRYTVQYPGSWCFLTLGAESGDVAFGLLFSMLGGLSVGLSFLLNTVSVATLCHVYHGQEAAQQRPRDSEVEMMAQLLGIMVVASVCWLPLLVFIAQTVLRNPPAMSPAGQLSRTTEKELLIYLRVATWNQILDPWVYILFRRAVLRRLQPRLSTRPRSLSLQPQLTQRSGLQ

[5] = target: Gamma-aminobutyric acid receptor subunit alpha-1 (Rattus norvegicus, UniProt P62813)
[6] = target: Glutamate receptor ionotropic, NMDA 1 (Rattus norvegicus, UniProt P35439)
Histamine H2 receptor = Histamine H2 receptor (Homo sapiens, UniProt P25021); format: functional, cell-based
[7] = target: T4, 5-hydroxytryptamine receptor 1A (Homo sapiens, UniProt P08908); format: functional, cell-based
T4 sequence (P08908 whole entry): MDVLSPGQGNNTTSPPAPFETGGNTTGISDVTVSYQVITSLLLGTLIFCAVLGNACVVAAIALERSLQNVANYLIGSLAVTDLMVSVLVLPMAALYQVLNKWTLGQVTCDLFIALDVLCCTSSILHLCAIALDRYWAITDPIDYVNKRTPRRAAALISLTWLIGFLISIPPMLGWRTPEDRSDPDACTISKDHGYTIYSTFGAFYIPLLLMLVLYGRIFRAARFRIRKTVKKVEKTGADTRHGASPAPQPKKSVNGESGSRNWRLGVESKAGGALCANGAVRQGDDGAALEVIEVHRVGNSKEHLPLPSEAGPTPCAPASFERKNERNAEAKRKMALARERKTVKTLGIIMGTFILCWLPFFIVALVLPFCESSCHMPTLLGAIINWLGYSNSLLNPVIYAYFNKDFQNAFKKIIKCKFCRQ

Vasopressin V1a receptor = Vasopressin V1a receptor (Homo sapiens, UniProt P37288)
[8] = target: Voltage-dependent L-type calcium channel subunit alpha-1C (Rattus norvegicus, UniProt P22002); format: functional
Progesterone receptor [9] = target: T2, Progesterone receptor; format: functional
Note: assay procedure not described here.

Chain of Histamine H3 receptor (Q9Y5N1 whole entry): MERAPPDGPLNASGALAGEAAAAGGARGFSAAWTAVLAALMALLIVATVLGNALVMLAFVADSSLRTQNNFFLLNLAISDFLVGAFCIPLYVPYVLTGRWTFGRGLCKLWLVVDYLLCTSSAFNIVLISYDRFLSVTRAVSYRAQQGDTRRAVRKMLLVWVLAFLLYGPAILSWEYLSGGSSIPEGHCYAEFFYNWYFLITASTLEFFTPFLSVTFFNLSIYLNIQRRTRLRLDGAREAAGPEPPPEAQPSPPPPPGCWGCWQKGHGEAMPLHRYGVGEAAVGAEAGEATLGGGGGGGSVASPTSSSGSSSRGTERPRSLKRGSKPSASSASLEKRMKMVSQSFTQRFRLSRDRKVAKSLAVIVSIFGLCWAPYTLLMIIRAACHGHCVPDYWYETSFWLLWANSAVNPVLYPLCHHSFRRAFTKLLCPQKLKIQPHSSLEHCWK
Chain of 5-hydroxytryptamine receptor 2B (P41595 whole entry): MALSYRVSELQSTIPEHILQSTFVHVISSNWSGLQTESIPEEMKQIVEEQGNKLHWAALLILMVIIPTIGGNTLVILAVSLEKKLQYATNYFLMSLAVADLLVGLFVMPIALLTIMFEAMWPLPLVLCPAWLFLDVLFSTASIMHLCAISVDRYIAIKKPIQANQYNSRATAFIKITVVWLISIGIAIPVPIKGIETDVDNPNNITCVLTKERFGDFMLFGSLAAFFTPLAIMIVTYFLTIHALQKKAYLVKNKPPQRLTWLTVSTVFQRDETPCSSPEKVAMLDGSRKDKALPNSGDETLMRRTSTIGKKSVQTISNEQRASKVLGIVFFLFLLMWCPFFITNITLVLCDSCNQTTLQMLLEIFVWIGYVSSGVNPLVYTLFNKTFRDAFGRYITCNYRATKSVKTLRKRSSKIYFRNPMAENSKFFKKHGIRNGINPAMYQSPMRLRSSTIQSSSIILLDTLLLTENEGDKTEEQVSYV
Chain of Voltage-dependent L-type calcium channel subunit alpha-1C (P22002 whole entry): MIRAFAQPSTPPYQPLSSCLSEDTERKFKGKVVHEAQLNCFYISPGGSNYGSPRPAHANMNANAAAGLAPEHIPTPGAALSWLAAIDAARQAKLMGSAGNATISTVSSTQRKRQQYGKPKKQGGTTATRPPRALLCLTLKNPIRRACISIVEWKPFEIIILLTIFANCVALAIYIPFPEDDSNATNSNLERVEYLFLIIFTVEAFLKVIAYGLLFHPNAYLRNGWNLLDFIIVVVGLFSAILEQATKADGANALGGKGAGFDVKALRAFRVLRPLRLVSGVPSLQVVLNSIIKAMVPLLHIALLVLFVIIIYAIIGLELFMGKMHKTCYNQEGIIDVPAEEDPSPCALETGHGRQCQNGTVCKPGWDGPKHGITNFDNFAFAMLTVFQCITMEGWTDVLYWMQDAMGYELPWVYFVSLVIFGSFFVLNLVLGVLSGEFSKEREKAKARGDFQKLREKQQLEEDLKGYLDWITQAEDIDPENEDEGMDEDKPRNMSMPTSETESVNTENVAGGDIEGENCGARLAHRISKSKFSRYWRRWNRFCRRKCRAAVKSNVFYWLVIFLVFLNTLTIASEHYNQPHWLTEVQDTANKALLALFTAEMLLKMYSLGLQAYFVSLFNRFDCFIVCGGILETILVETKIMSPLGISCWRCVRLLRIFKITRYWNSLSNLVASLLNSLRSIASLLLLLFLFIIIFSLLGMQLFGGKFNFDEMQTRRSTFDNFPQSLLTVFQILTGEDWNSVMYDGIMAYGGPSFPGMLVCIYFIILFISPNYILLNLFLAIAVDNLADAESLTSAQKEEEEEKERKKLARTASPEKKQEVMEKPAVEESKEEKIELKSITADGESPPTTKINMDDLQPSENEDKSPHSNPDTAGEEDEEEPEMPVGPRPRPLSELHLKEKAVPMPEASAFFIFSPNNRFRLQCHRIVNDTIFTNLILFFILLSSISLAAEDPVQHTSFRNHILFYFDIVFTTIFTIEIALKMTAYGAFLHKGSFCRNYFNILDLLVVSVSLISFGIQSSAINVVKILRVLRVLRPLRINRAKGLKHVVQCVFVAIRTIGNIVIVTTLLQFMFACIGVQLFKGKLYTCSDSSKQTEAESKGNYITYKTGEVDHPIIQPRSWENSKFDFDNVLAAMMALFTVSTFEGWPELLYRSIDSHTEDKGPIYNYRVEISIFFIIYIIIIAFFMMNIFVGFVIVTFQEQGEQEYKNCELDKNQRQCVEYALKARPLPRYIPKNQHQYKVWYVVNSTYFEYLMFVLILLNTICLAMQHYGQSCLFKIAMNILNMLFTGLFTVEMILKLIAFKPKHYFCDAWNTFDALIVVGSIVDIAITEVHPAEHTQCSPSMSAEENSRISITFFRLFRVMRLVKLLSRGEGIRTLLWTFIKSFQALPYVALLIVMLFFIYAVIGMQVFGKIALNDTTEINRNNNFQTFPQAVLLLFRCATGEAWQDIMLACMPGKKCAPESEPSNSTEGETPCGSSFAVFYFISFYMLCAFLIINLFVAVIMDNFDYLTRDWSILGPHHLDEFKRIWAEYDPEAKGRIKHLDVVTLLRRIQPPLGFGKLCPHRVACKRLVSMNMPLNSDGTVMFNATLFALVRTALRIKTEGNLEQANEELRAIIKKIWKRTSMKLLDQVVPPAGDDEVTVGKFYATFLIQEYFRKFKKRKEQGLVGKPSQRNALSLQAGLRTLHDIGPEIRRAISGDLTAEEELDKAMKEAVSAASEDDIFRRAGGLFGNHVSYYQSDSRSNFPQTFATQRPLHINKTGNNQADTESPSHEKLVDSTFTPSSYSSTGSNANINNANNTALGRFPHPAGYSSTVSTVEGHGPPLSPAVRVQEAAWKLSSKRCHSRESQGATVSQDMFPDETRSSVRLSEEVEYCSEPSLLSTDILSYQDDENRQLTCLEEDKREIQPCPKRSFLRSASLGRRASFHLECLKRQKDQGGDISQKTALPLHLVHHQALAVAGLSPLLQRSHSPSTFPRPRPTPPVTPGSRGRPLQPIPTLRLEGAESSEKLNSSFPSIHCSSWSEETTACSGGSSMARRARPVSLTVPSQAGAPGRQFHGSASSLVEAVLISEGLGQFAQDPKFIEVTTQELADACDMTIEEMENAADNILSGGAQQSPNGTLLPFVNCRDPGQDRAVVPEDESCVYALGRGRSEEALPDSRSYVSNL
Chain of Histamine H2 receptor (P25021 whole entry): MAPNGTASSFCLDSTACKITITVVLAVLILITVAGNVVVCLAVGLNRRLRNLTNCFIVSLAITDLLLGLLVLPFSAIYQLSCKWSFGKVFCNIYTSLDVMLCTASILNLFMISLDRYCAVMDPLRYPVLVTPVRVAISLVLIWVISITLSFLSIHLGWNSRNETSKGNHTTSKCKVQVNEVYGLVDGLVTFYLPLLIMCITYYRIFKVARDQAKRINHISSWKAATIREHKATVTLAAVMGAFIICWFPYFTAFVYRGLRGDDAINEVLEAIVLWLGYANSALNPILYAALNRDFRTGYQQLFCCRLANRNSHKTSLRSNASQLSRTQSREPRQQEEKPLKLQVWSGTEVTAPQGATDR
Chain of Prostaglandin G/H synthase 1 (P23219 whole entry): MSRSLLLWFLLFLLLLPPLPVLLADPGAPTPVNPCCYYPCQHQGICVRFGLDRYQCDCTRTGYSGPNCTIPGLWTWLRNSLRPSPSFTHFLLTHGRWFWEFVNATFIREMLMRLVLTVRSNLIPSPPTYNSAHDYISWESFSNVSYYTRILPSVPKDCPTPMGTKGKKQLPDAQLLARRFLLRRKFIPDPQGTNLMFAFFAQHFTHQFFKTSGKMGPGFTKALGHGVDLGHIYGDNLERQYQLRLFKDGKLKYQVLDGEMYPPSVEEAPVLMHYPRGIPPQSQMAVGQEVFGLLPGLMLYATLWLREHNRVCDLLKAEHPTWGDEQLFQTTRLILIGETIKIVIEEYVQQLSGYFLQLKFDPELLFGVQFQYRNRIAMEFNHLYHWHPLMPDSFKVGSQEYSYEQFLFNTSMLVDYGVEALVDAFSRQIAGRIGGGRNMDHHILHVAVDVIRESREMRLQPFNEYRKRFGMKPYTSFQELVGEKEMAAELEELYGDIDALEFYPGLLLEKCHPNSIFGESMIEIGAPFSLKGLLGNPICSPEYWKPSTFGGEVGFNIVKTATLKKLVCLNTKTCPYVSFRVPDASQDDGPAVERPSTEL
Chain of Acetylcholinesterase (P22303 whole entry): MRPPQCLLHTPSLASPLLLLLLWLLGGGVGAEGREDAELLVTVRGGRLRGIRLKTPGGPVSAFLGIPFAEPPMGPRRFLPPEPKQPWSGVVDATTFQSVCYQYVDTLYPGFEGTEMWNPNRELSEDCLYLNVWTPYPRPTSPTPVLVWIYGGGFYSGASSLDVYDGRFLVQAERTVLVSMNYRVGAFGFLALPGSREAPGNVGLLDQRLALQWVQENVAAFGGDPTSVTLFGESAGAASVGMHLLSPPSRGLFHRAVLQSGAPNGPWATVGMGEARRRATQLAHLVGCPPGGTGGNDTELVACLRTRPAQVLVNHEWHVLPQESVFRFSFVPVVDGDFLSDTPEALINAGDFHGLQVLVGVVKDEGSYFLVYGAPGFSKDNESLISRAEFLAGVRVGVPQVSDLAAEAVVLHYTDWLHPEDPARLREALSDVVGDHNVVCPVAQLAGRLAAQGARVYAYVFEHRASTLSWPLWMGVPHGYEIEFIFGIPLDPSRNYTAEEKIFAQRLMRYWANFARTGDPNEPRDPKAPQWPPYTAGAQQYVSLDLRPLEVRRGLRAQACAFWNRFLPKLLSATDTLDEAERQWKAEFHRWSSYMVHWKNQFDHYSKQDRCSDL

Compound | AC50 (Acetylcholinesterase) | AC50 [1] | AC50 (Prothrombin) | AC50 (Histamine H3 receptor) | AC50 [2] | AC50 (Progesterone receptor [3]) | AC50 [4] | AC50 (Thromboxane A2 receptor) | AC50 [5] | AC50 [6] | AC50 (Histamine H2 receptor) | AC50 [7] | AC50 (Vasopressin V1a receptor) | AC50 [8] | AC50 (Progesterone receptor [9])
CCCCCCO[C@@H](C)c1cccc(-c2csc(NC(=O)c3cc(Cl)c(/C=C(\C)C(=O)O)c(Cl)c3)n2)c1OC [LUSUTROMBOPAG] | > 30 µM | > 30 µM | 19.3 µM | 15.1 µM | > 30 µM | 9.34 µM | 2.15 µM | 14.2 µM | – | – | – | – | – | – | –
C[C@]12CC[C@@H]3c4ccc(OC(=O)N(CCCl)CCCl)cc4CC[C@H]3[C@@H]1CC[C@@H]2OP(=O)(O)O [ESTRAMUSTINE PHOSPHATE] | > 30 µM | > 30 µM | > 30 µM | > 30 µM | > 30 µM | > 30 µM | > 30 µM | > 30 µM | – | – | – | – | – | – | –
CC(C)NC[C@H](O)COc1ccc(O)cc1 [PRENALTEROL] | > 30 µM | > 30 µM | > 30 µM | > 30 µM | > 30 µM | > 30 µM | 8.99 µM | > 30 µM | – | – | – | – | – | – | –
O=P1(N(CCCl)CCCl)NCCCO1 (stereo not drawn) [CYCLOPHOSPHAMIDE ANHYDROUS] | > 30 µM | > 30 µM | > 30 µM | > 30 µM | > 30 µM | > 30 µM | > 30 µM | > 30 µM | – | – | – | – | – | – | –
C=CCOc1ccc(CC(=O)O)cc1Cl [ALCLOFENAC] | > 30 µM | > 30 µM | > 30 µM | > 30 µM | > 30 µM | > 30 µM | > 30 µM | > 30 µM | – | – | – | – | – | – | –
N#Cc1ccnc(N2C(=O)CC[C@H]2C(=O)N(c2cncc(F)c2)[C@H](C(=O)NC2CC(F)(F)C2)c2ccccc2Cl)c1 [IVOSIDENIB] | > 30 µM | > 30 µM | > 30 µM | > 30 µM | > 30 µM | > 30 µM | > 30 µM | > 30 µM | – | – | – | – | – | – | –
NCCCNCCSP(=O)(O)O [AMIFOSTINE] | – | – | – | – | – | – | – | – | > 30 µM | > 30 µM | > 30 µM | > 30 µM | – | – | –
OCCOCCN1CCN(C(c2ccccc2)c2ccc(Cl)cc2)CC1 (stereo not drawn) [HYDROXYZINE] | – | – | – | – | – | – | – | – | > 10 µM | > 10 µM | > 10 µM | > 10 µM | > 10 µM | > 10 µM | –
OC[C@H]1NC[C@H](O)[C@@H](O)[C@H]1O | > 30 µM | > 30 µM | > 30 µM | > 30 µM | > 30 µM | > 30 µM | > 30 µM | > 30 µM | – | – | – | – | – | – | –
O=c1[nH]c2ccccc2n1CCN1CCN(c2cccc(C(F)(F)F)c2)CC1 [FLIBANSERIN] | > 30 µM | 10.3 µM | > 10 µM | > 30 µM | > 30 µM | > 30 µM | > 30 µM | 10.5 µM | – | – | – | – | – | – | –
C[C@H](CCC(=O)O)[C@H]1CC[C@H]2[C@@H]3[C@H](O)C[C@@H]4C[C@H](O)CC[C@]4(C)[C@H]3CC[C@]12C [CHENODIOL] | – | – | – | – | – | – | – | – | – | – | – | > 30 µM | > 30 µM | – | –
C[C@@H](CN1CC(=O)NC(=O)C1)N1CC(=O)NC(=O)C1 [DEXRAZOXANE] | > 30 µM | > 30 µM | > 30 µM | > 30 µM | > 30 µM | > 30 µM | 2.16 µM | > 30 µM | – | – | – | – | – | – | –
COc1cccc2c1C(=O)c1c(O)c3c(c(O)c1C2=O)C[C@@](O)(C(=O)CO)C[C@@H]3O[C@H]1C[C@H](N)[C@H](O[C@@H]2CCCCO2)[C@H](C)O1 [PIRARUBICIN] | > 10 µM | > 30 µM | > 30 µM | > 30 µM | > 30 µM | > 30 µM | 0.5 µM | > 10 µM | – | – | – | – | – | – | –
CN1CCN(C(c2ccccc2)c2ccc(Cl)cc2)CC1 (stereo not drawn) [CHLORCYCLIZINE] | > 30 µM | 3.1 µM | > 30 µM | 15.8 µM | > 30 µM | > 30 µM | > 30 µM | – | – | – | – | – | – | – | –
C=CC1=C(C(=O)O)N2C(=O)[C@@H](NC(=O)/C(=N\O)c3csc(N)n3)[C@H]2SC1 | – | – | – | – | – | – | – | – | > 10 µM | > 10 µM | > 10 µM | > 10 µM | > 30 µM | > 10 µM | –
CCOC(=O)Nc1ccc(NCc2ccc(F)cc2)nc1N [FLUPIRTINE] | – | – | – | – | – | – | – | – | > 30 µM | > 30 µM | > 30 µM | 22 µM | > 30 µM | > 30 µM | > 30 µM
C[C@H](CS)C(=O)N1CCC[C@H]1C(=O)O [CAPTOPRIL] | – | – | – | – | – | – | – | – | > 10 µM | > 10 µM | > 30 µM | – | – | > 10 µM | –
CCCCCCCC/C=C\CCCCCCCC(=O)O [OLEIC ACID] | > 30 µM | > 30 µM | > 30 µM | > 30 µM | > 30 µM | – | 6.68 µM | 25.3 µM | – | – | – | – | – | – | –
O=C(O)COC(=O)Cc1ccccc1Nc1c(Cl)cccc1Cl [ACECLOFENAC] | – | – | – | – | – | – | – | – | > 10 µM | > 10 µM | > 10 µM | > 10 µM | > 30 µM | > 10 µM | –
CCOc1ccccc1OCCN[C@H](C)Cc1ccc(OC)c(S(N)(=O)=O)c1 [TAMSULOSIN] | – | – | – | – | – | – | – | – | > 10 µM | > 10 µM | > 10 µM | 0.02 µM | > 30 µM | > 10 µM | –
Nc1nnc(-c2cccc(Cl)c2Cl)c(N)n1 [LAMOTRIGINE] | – | – | – | – | – | – | – | – | > 10 µM | > 10 µM | > 10 µM | > 10 µM | > 10 µM | – | –
NC(=O)C1(N2CCCCC2)CCN(CCCN2c3ccccc3CCc3ccccc32)CC1 [CARPIPRAMINE] | > 30 µM | 0.208 µM | > 30 µM | 11.7 µM | > 30 µM | > 30 µM | > 30 µM | – | – | – | – | – | – | – | –
C[C@]12CCC(=O)C=C1CC[C@H]1[C@@H]3CC[C@](O)(C(=O)CO)[C@@]3(C)C[C@H](O)[C@@]12F [FLUDROCORTISONE] | – | – | – | – | – | – | – | – | > 10 µM | > 10 µM | > 10 µM | > 10 µM | > 30 µM | > 10 µM | –

From ChEMBL document CHEMBL5291721, “A preclinical secondary pharmacology resource illuminates target-adverse drug reaction associations of marketed drugs” (Nat Commun, 2023)
